Data as given in patent US20140005281A1, “Method of Predicting Increased Risk of Suffering Statin-induced Adverse Drug Reactions” (priority 2012, published 2014).

Legend:
caspase-3 = conditions: mouse, in vivo
Experimental: A firefly luciferase-based assay was used to measure activity of caspase 3 (Caspase-Glo® 3/7, Promega). Muscles were homogenized (25 mM HEPES pH 7.5, 0.1% (v/v) Triton X-100, 5 mM MgCl2, 2 mM 1,4-dithiothreitol, 10 mM NH4Cl, 10 mM 3-methyladenine, 74 μM antipain, 0.15 μM aprotinin, 1.3 mM EDTA, 20 μM leupeptin, and 15 μM pepstatin). After homogenization, a 20 μg protein product was added to the luminometer in triplicates for the protease luminescence assay.
(§1) Serial cryosections of tibialis anterior muscle from statin-treated αC418W and WT mice were stained for calcium deposits (via GBHA) and also for cholinesterase to localize end-plates. Looking at these in adjacent sections, we were able to measure the percent of calcium-positive NMJs as previously described.

[1] = Cholesterol measurement in muscle during statin treatment; type: in vivo, mice; conditions: after 3 days of statin treatment, 44 mg/kg daily oral gavage
Experimental: 800 μl of each sucrose gradient fraction were subjected to the Bligh-Dyer method for the extraction of lipids in solution. Briefly, 3.75 ml 1:2 (v/v) CHC13: MeOH were added to each sample, followed by 1.25 ml of CHCl3, and 1.25 ml of distilled water; after each addition, samples were vigorously vortexed. The organic phase of each sample was carefully extracted and dried under N2(g). Cholesterol was separated from other lipids on rhodamine 6G stained silica gel G plates with petroleum ether/diethyl ether (98:2, v/v) as the solvent system. The spots corresponding to cholesterol was extracted with petroleum ether:ethyl ether (2:3 v/v) and further assayed using the Wako cholesterol E Kit (Wako Chemicals USA, VA) according to the manufacturer's indications.

αC418W and WT mice = experiment: GBHA stain for end-plate (NMJ) calcium overload, tibialis anterior muscle
Excerpt: as §1

## CC(C)c1c(C(=O)Nc2ccccc2)c(-c2ccccc2)c(-c2ccc(F)cc2)n1CC[C@@H](O)C[C@@H](O)CC(=O)O [atorvastatin, Atorvastatin calcium]
caspase-3
  caspase-3 activity: did not show an increase
  caspase-3 activity compared with placebo-treated control group: remained unchanged
[1]
  total cholesterol levels: significantly lowered
αC418W and WT mice; WT mice, statin treatment
  NMJ calcium overload: did not cause NMJ calcium overload
αC418W and WT mice; αC418W mice, at 36 days of statin treatment
  NMJ calcium overload (GBHA-positive end-plates), increase over control levels: ~3 fold
